Measurements reported in PMC9057582, “HIF inhibitor 32-134D eradicates murine hepatocellular carcinoma in combination with anti-PD1 therapy” (The Journal of Clinical Investigation, 2022).

Experiments:
Hep3B tumor xenograft = test: Analysis of Hep3B xenograft tumors (immunoblot, RT-qPCR, ELISA, CD31 immunohistochemistry); assay type: in vivo, nude (nu/nu) mice
Excerpt: Figure 2 Effect of 32-134D on Hep3B tumor xenograft growth and vascularization. (A) Female nude mice received a subcutaneous injection of […] Hep3B cells. When tumors reached a volume of 150 mm^3 (designated treatment day 1), the mice were randomized to receive a daily intraperitoneal injection of 32-134D at a dose of 0 (blue), 20 (black), 40 (red), or 80 (green) mg/kg. Data are presented as mean tumor volume (± SEM; n = 4 each). **P < 0.01, ***P < 0.001 (ANOVA with Bonferroni’s post hoc test). (B) Gross pathology of tumors harvested from vehicle-treated (top panel) and 32-134D–treated (bottom panel) mice. (C) Nuclear extracts prepared from tumors were assayed by immunoblotting using antibodies against the indicated proteins. (D) Total RNA was isolated from tumor tissue and analyzed by RT-qPCR using primers specific for the indicated mRNAs and results (mean ± SEM, n = 4) were normalized to the mean value for tumors from vehicle-treated mice. (E) ELISA for the indicated proteins was performed using aliquots of tumor lysates (mean ± SEM; n = 3–4 tumors each). *P < 0.05 (Mann-Whitney test). (F) Formalin-fixed and paraffin-embedded tumor sections were analyzed by immunohistochemistry using an antibody against CD31 to identify vascular endothelial cells. Scale bar: 100 μm. The total CD31^+ vessel area per field was quantified using ImageJ (mean ± SEM; n = 4 tumors with 5 sections per tumor). *P < 0.05 (Student’s t test).
Intratumoral HIF-1β protein levels were not affected by treatment with 32-134D (Supplemental Figure 5E).
Female nude mice (NCI Athymic NCr-nu/nu) and male C57L mice were purchased from Charles River and The Jackson Laboratory, respectively. Hep3B (8 × 10^6) and Hepa1-6 (1 × 10^7) cells were resuspended in PBS and Matrigel (1:1, vol/vol) and implanted subcutaneously in 6- to 8-week-old mice, and tumor volume was calculated as V = abc × 0.52. For Hep3B tumor studies, once tumors reached 100 to 150 mm^3, mice were randomized into groups to receive daily intraperitoneal injection of either 32-134D or vehicle only (20% PEG-400, 10% Cremophor EL, 10% ethanol in PBS). For Hepa1-6 tumors, mice were randomized to receive treatment once tumors became palpable (tumor eradication experiment) or reached a volume of 200 mm^3 (harvesting of tumors for flow cytometry and analysis of RNA and protein expression). Tumors were harvested 4 hours after the last treatment (see Supplemental Table 6 for reagent sources).
Tumor samples were fixed in 10% formalin in phosphate buffer for 24 hours and placed in PBS the following day for paraffin embedding and sectioning. Anti-CD31 immunohistochemical staining, hematoxylin and eosin counterstaining, and whole-slide scanning were performed by NDB Bio (www.ndbbio.com).
Tumors were homogenized in ice-cold PBS supplemented with 1% Triton X-100 and PIs, centrifuged at 10,000g for 20 minutes to pellet debris, and the supernatant was collected for ELISA using commercial kits (Supplemental Table 6). Optical density was obtained at 450 nm (corrected for readings at 570 nm) using the VICTOR Nivo plate reader. Sample protein concentration was calculated by linear regression from a standard curve.

Hepa1-6 mouse HCC cells = test: RT-qPCR of hypoxia-induced gene expression in Hepa1-6 cells; assay type: cell-based; conditions: Hepa1-6, 1% O2, 24 hours
Experimental: Next, we analyzed Hepa1-6, which is a mouse HCC cell line. […] CXCL1, IL-6, and IL-10 were not induced by hypoxia, whereas hypoxia-induced IL-22 expression was inhibited by 32-134D (P < 0.05; Figure 3C).
Figure 3 Effect of 32-134D treatment on hypoxia-induced gene expression in Hepa1-6 cells. (A–C) Cells were exposed to 20% O2 and vehicle (white bars), 1% O2 and vehicle (blue bars), or 1% O2 and 32-134D (red bars) for 24 hours and mRNAs were quantified by RT-qPCR and normalized to white (mean ± SEM, n = 4). *P < 0.05 versus white; ^#P < 0.05 versus blue (ANOVA with Bonferroni’s post hoc test).
RNA was extracted using TRIzol Reagent. Quantitative real-time PCR was conducted using SYBR Green PCR Master Mix and reactions were run using a Bio-Rad thermal cycler. Primer sequences and reagent sources are listed in Supplemental Table 5. The mRNA expression of target genes was normalized to the expression of 18S rRNA and the fold change (FC) was calculated based on the threshold cycle (Ct) as FC = 2^–Δ(ΔCt), where ΔCt = Cttarget gene – Ct18S rRNA and Δ(ΔCt) = ΔCttreatment – ΔCtcontrol. For RNA-seq, total RNA was isolated and treated with DNase (Qiagen). The JHU GRCF High-Throughput Sequencing facility prepared libraries and performed RNA-seq. The RNA-seq data were processed and interpreted using Genialis Expressions software (https://www.genialis.com/expressions/). An automated data analysis pipeline run in the Genialis platform consisted of the following: Sequence quality checks were performed on raw and trimmed reads with FastQC. Bbduk was used to trim adapters and filter out poor quality reads. Trimmed reads were then mapped to the STAR index (ENSEMBL 100) reference genome using the STAR ([93]) aligner. Gene expression levels were quantified with featureCounts ([94]), and differential gene expression analyses were performed with DESeq2 ([95]). […] Differential expression was determined with an FDR of less than 0.05 and mRNA FC of greater than 1.5 to identify hypoxia-induced genes and genes inhibited by 32-134D. Data used in this study have been deposited in the NCBI Gene Expression Omnibus database (GEO GSE195997).
Supplemental Figure 7. Effect of 32-134D on gene expression in Hepa1-6 cells. Cells were exposed to 20% O2 and vehicle (white bar) or 1% O2 and vehicle (blue bar), 2.5-10 […]
for 24 hours and mRNAs were quantified by RT-qPCR and normalized to white (mean + SEM, n = 4). *p < 0.05 vs white; #p < 0.05 vs blue (ANOVA with Bonferroni post-test).
(1 picture or pasted object on this page, not shown here)

For `Brc1ccc2c(-c3csc(-c4c[nH]c5c(Br)cccc45)n3)c[nH]c2c1` [Compound 32-134D], which “VEGFA, EPO, SDF-1α and SCF protein in tumor lysates” value (Hep3B tumor xenograft; ELISA, P < 0.05) is on record?
The value was “significantly decreased expression”.

And the “tumor mRNA expression of ANGPTL4, EPO, PGF, CD73, PDL1, VEGFA, SDF-1, SCF” value (Hep3B tumor xenograft; RT-qPCR, P < 0.05)?
Its value is “significant decrease”.

And the “intratumoral HIF-1β protein levels” value (Hep3B tumor xenograft; immunoblot)?
The value was “not affected”.

What about the “intratumoral HIF-1α and HIF-2α protein expression” value (Hep3B tumor xenograft; immunoblot of tumor lysates) of the same compound?
Its value is “almost complete loss”.

And the “CD31+ blood vessel area in tumors” value (Hep3B tumor xenograft; immunohistochemistry, P < 0.05)?
Its value is “significantly decreased blood vessel area”.

And the “RPL13A mRNA expression” value (Hepa1-6 mouse HCC cells)?
Its value is “no effect”.

What about the “hypoxic induction of PDL1 mRNA” value (Hepa1-6 mouse HCC cells) of the same compound?
The value was “induced in vehicle-treated but not in 32-134D–treated cells”.

What about the “hypoxia-induced ANGPTL4, EPO, PGF, and VEGFA mRNA expression” value (Hepa1-6 mouse HCC cells; 2.5-10 µM) of the same compound?
Its value is “significant dose-dependent inhibition”.

And the “hypoxia-induced IL-22 expression” value (Hepa1-6 mouse HCC cells; P < 0.05)?
Its value is “inhibited”.

And the “hypoxia-induced expression of SLC2A1, LDHA, ENTPD1, and CA9 mRNA” value (Hepa1-6 mouse HCC cells; P < 0.05)?
The value was “inhibited”.

And the “hypoxic induction of B7H4 and TIM3 mRNA” value (Hepa1-6 mouse HCC cells; P < 0.05)?
The value was “hypoxia-induced expression in vehicle-treated but not in 32-134D–treated cells”.
